# Where two headings read alike, the source gives them in different places.
# How the values were obtained:
# [1] = Risk categorization of statins for coadministration with encorafenib; details: qualitative, from metabolic and transporter profile
# CYP2B6 [2] = format: in vivo, Human
# CYP3A4 = details: cited from earlier work
# CYP2D6 = details: cited from earlier work
# CYP2C19 = details: cited from earlier work
# [3] = Phase 1 DDI study: plasma PK of encorafenib; format: in vivo; details: human, oral, GM (CV%); for AUC(0-t): AUClast
# [4] = cited from earlier work
# CYP2B6 [5] = details: in vitro hepatocyte assay, clinically relevant plasma concentrations; cited from earlier work
# [6] = test system: OATP1B1, OATP1B3, and BCRP; format: in vivo, Human; details: phase 1 study and exploratory CP-I analysis
# BCRP [7] = details: in vitro, weak inhibitor; cited from earlier work
# OATP1B1/3 = details: in vitro, potent inhibitor; cited from earlier work
# CYP2B6 [8] = details: in vitro; cited from earlier work
# [9] = format: in vivo, Human; details: single oral administrations on days −7, 1 and 14
# BCRP [10] = details: cited from earlier work
# CYP2B6 and CYP3A4 = details: strong inducer of CYP2B6 and CYP3A4; cited from earlier work
# OATP1B1 [11] = details: strong inhibitor of OATP1B1; cited from earlier work
# OATP1B1 [12] = biological target: T1, OATP1B1 (Homo sapiens, UniProt Q9Y6L6); assay: Maximum fold change of plasma CP-I in phase 3 safety lead-in participants; format: in vivo; details: SLI phase, encorafenib 300 mg QD + cetuximab
# T1 sequence (Q9Y6L6 1-691): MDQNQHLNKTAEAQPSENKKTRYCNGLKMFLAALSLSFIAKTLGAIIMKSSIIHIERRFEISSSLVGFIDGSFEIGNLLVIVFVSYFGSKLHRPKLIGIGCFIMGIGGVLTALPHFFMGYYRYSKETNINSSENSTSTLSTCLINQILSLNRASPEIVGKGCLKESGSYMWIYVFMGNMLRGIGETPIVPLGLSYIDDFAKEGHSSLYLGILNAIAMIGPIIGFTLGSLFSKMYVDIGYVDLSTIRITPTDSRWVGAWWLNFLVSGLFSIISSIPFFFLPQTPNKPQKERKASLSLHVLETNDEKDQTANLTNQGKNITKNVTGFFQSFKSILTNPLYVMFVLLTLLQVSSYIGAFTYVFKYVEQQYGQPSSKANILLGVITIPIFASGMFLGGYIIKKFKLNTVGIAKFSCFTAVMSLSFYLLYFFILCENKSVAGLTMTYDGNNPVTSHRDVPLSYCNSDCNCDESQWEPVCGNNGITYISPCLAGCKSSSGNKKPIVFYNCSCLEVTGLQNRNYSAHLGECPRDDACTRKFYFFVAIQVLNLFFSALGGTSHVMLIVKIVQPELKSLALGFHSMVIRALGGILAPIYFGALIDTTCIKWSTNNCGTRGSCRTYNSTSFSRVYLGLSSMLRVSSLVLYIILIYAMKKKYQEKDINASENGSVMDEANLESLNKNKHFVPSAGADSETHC
molecule,measurement,setting,value
CC(C)c1c(C(=O)Nc2ccccc2)c(-c2ccccc2)c(-c2ccc(F)cc2)n1CC[C@@H](O)C[C@@H](O)CC(=O)O [Atorvastatin],Risk category following coadministration with encorafenib,[1],at risk of loss of efficacy
"CC(NC(C)(C)C)C(=O)c1cccc(Cl)c1 (centres unmarked) [Bupropion, bupropion]",Decrease in AUClast compared with administration on its own,CYP2B6 [2]; following repeated doses of encorafenib and binimetinib,26%
same,Decrease in AUClast compared with administration on its own,CYP2B6 [2]; following single dose of encorafenib and binimetinib,23%
"COC(=O)N[C@@H](C)CNc1nccc(-c2cn(C(C)C)nc2-c2cc(Cl)cc(NS(C)(=O)=O)c2F)n1 [Encorafenib, encorafenib]",Share of metabolism,CYP3A4,83%
same,Clinical CYP2B6 inhibition (conclusion),"CYP2B6 [2]; bupropion probe, after a single dose of encorafenib",does not act as an inhibitor of CYP2B6
same,Clinical CYP2B6 induction (conclusion),"CYP2B6 [2]; bupropion probe, steady-state encorafenib",likely not a clinically relevant inducer of CYP2B6
same,Share of metabolism,CYP2D6,1%
same,Share of metabolism,CYP2C19,16%
same,AUC(0-t),[3]; encorafenib single dose (day 1),25900 ng·h/mL
same,AUC(0-t),[3]; encorafenib steady state (day 14),13100 ng·h/mL
same,Cmax,"[3]; Cmax, encorafenib steady state (day 14), n=10",2940 ng/mL
same,Steady-state exposure lower compared with exposure following a single dose,[4]; autoinduction of CYP3A4,approximately 50%
same,Estimated bioavailability,"[4]; oral, no reference given",at least 86%
same,Time to peak concentrations,"[4]; oral, no reference given",≤ 2 h
same,R3 values (induction),CYP2B6 [5],< 0.9
same,Clinical BCRP inhibition (conclusion),[6],likely an inhibitor of BCRP
same,Clinical OATP1B1/3 inhibition (conclusion),[6],may also inhibit OATP1B1/3 to a lesser extent
same,R values (inhibition),BCRP [7],≥ 1.1
same,R values (inhibition),OATP1B1/3,≥ 1.1
same,Unbound R1 value (reversible inhibition),CYP2B6 [8],3.1
"C[C@H]1NC(C)(C)CO[C@]1(O)c1cccc(Cl)c1 [Hydroxybupropion, hydroxybupropion]",Change in AUClast,CYP2B6 [2]; following a single dose of encorafenib and binimetinib,not changed
same,Increase in AUClast,CYP2B6 [2]; with repeated doses of encorafenib and binimetinib,48%
CC[C@H](C)C(=O)O[C@H]1C[C@@H](C)C=C2C=C[C@H](C)[C@H](CC[C@@H]3C[C@@H](O)CC(=O)O3)[C@H]21 [Lovastatin],Risk category following coadministration with encorafenib,[1],at risk of loss of efficacy
O=C(O)C[C@H](O)C[C@H](O)/C=C/c1c(C2CC2)nc2ccccc2c1-c1ccc(F)cc1 [Pitavastatin],Risk category following coadministration with encorafenib,[1],highest risk of increased exposure
CC[C@H](C)C(=O)O[C@H]1C[C@H](O)C=C2C=C[C@H](C)[C@H](CC[C@@H](O)C[C@@H](O)CC(=O)O)[C@H]21 [Pravastatin],Risk category following coadministration with encorafenib,[1],least likely to be affected
"CC(C)c1nc(N(C)S(C)(=O)=O)nc(-c2ccc(F)cc2)c1/C=C/[C@@H](O)C[C@@H](O)CC(=O)O [Rosuvastatin, rosuvastatin]",Risk category following coadministration with encorafenib,[1],highest risk of increased exposure
same,Tmax,[9],2 h
same,Theoretical maximum fold-change in exposure based on BCRP alone,BCRP [10],2 fold
NC(=O)N1c2ccccc2C=Cc2ccccc21 [carbamazepine],Effect of treatment on bupropion and hydroxybupropion,CYP2B6 and CYP3A4,substantial decrease in bupropion and increase in hydroxybupropion
CO[C@H]1/C=C/O[C@@]2(C)Oc3c(C)c(O)c4c(O)c(c(/C=N/N5CCN(C)CC5)c(O)c4c3C2=O)NC(=O)/C(C)=C\C=C\[C@H](C)[C@H](O)[C@@H](C)[C@@H](O)[C@@H](C)[C@H](OC(C)=O)[C@@H]1C [rifampin],Plasma CP-I maximum fold-change,OATP1B1 [11],approximately 6 fold
Coproporphyrin I [CP-I],Observed maximum fold change in CP-I concentrations,"OATP1B1 [12]; C1D1 (single dose), CRC patients",1.4 fold
same,Observed maximum fold change in CP-I concentrations,OATP1B1 [12]; C2D1,1.2 fold

# — publication PMC11052825 (Clinical Pharmacokinetics, 2024)
